Test results taken from paper PMC4041848, “Differential Effects of Omeprazole and Lansoprazole Enantiomers on Aryl Hydrocarbon Receptor in Human Hepatocytes and Cell Lines” (PLoS ONE, 2014).
Where two headings read alike, the source gives them in different places.

Assays:
[1] = system: aryl hydrocarbon receptor AhR; experiment: AhR gene reporter assay, antagonist mode (with TCDD); details: read-out: AhR antagonist IC50; AZ-AHR cells, 24 h, in the presence of TCDD (5 nM), average of four passages
Method: (§1) A stably transfected gene reporter cell line AZ-AHR, derived from human hepatoma HepG2 cells transfected with a construct containing several AhR binding sites upstream of a luciferase reporter gene, was used for assessment of AhR transcriptional activity. Cells were incubated for 24 h with tested compounds and/or vehicle (DMSO; 0.1% v/v), in the presence or absence of TCDD (10 nM; AZ-AHR cells) or DEX (100 nM; AZ-GR cells). After the treatments, cells were lysed and luciferase activity was measured. In parallel, cell viability was determined by conventional MTT test.
Figure 1 Effect of omeprazole and lansoprazole enantiomers on transcriptional activity of aryl hydrocarbon receptor AhR in human gene reporter cell line AZ-AHR. The cells were seeded in 96-well plates and stabilized for 16 h. […] After the treatment, MTT test was performed and absorbance was measured at 540 nm. […] The data are the mean from experiments from six different passages of cells and are expressed as a percentage of viability of control cells. The values of IC50 were calculated and are indicated in a figure. […] After the treatments, cells were lysed and luciferase activity was measured. […] Data are expressed as a fold induction of luciferase activity over control cells (Panels C and D - agonist mode) or as a percentage of maximal induction attained by TCDD (Panels E and F- antagonist mode). […]

[2] = system: aryl hydrocarbon receptor AhR; experiment: AhR gene reporter assay, agonist mode
Method: as §1
(§2) Figure 1 Effect of omeprazole and lansoprazole enantiomers on transcriptional activity of aryl hydrocarbon receptor AhR in human gene reporter cell line AZ-AHR. The cells were seeded in 96-well plates and stabilized for 16 h. Panels A and B: Cells were incubated for 24 h with S-OME, R-OME, rac-OME, S-LAN, R-LAN and rac-LAN at concentrations ranging from 10^−10 M to 10^−4 M. The vehicle was DMSO (0.1% v/v). After the treatment, MTT test was performed and absorbance was measured at 540 nm. Treatments were performed in triplicates. The data are the mean from experiments from six different passages of cells and are expressed as a percentage of viability of control cells. The values of IC50 were calculated and are indicated in a figure. Panels C - F: AZ-AHR cells were incubated for 24 h with S-OME, R-OME, rac-OME, S-LAN, R-LAN and rac-LAN at concentrations ranging from 10^−10 M to 10^−4 M in the absence (Panels C and D - agonist mode) or in the presence (Panels E and F- antagonist mode) of TCDD (5 nM). The vehicle was DMSO (0.1% v/v). After the treatments, cells were lysed and luciferase activity was measured. Treatments were performed in triplicates in five (agonist mode) or four (antagonist mode) independent cell passages. […] Data are expressed as a fold induction of luciferase activity over control cells (Panels C and D - agonist mode) or as a percentage of maximal induction attained by TCDD (Panels E and F- antagonist mode).
Gene reporter assays were performed in two different experimental layouts. […] In antagonist mode, cells were incubated with increasing concentrations of tested compounds in combination with model agonist (TCDD; 5 nM), and half-maximal inhibitory concentrations (IC50) were calculated. […] The efficacy was calculated at concentration of compounds of 100 µM and compared to 5 nM TCDD (Figure 1C).

CYP1A2 mRNA = CYP1A2 mRNA induction in primary human hepatocytes (qRT-PCR); details: hepatocyte culture HH52, 24 h, 100 µM
Description: (§3) Primary human hepatocytes used in this study were obtained from two sources: (i) from multiorgan donor HH52; the use of liver cells of donor HH52 was approved by “Ethical committee at the Faculty Hospital Olomouc”,and it was in accordance with Transplantation law #285/2002 Sb; “Ethical committee at the Faculty Hospital Olomouc” waived the authors from obtaining consent from the next of kin, regarding human hepatocytes obtained from liver donor HH52. (ii) long-term human hepatocytes in monolayer Batch HEP220770 (person), Batch HEP220774 (person) were purchased from Biopredic International (Biopredic International, Rennes, France). Cells were cultured in serum-free medium. Cultures were maintained at 37°C and 5% CO2 in a humidified incubator.
Total RNA was isolated using TRI Reagent (Molecular Research Center, Cincinnati, OH, USA). cDNA was synthesized from 1000 ng of total RNA using M-MLV Reverse Transcriptase (Finnzymes, Espoo, Finland) at 42°C for 60 min in the presence of random hexamers (Takara, Shiga, Japan). qRT-PCR was carried out using LightCycler FastStart DNA MasterPLUS SYBR Green I (Roche Diagnostic Corporation, Prague, Czech Republic) on a Light Cycler 480 II apparatus (Roche Diagnostic Corporation). CYP1A1, CYP1A2 and GAPDH mRNAs were determined as described previously. Measurements were performed in triplicates. […]

AZ-AHR cells = experiment: MTT cytotoxicity test in AZ-AHR reporter cells; details: for cytotoxicity: AZ-AHR cells, 24 h, MTT, concentrations up to 250 µM
Method: as §1
(§4) In the first series of experiments, the cytotoxicity of tested compounds was assessed in gene reporter cell line AZ-AHR. For this purpose, the cells were incubated for 24 h with S-OME, R-OME, rac-OME, S-LAN, R-LAN and rac-LAN at concentration ranging from 100 pM to 250 µM. The vehicle was DMSO (0.1% v/v). After the treatment, a conventional MTT test was performed.
as §2

[3] = system: primary human hepatocytes; experiment: MTT cytotoxicity test in primary human hepatocytes; details: 100 µM
Method: (§5) Figure 3 Effects of omeprazole and lansoprazole enantiomers on CYP1A1 mRNA, protein and EROD activity in primary human hepatocytes. Panel A and Panel B: RT-PCR analyses of CYP1A1 and CYP1A2 mRNA and western blots of CYP1A1 and CYP1A2 from two different cultures (HH52 and Hep220770) are shown. Human hepatocytes were incubated for 24 h (mRNA analysis) or 48 (protein analysis) with S-OME, R-OME, rac-OME, S-LAN, R-LAN, rac-LAN, TCDD and vehicle (DMSO; 0.1% v/v). RT-PCR data are the mean ± SD from triplicate measurements and are expressed as fold induction over vehicle-treated cells. Data were normalized to GAPDH mRNA levels. Density of bands in western blots was quantified by densitometry and the values are indicated along with respective blots. Panel C: EROD and cytotoxicity: Human hepatocytes (culture Hep220774) were treated for 24 h with S-OME, R-OME, rac-OME, S-LAN, R-LAN, rac-LAN, TCDD and vehicle (DMSO; 0.1% v/v). Upper bar graph: An activity of 7-ethoxyresorufin- O-deethylase (EROD) was measured by fluorescent spectrophotometry with 530 nm excitation and 590 nm emission filters. Treatments were performed in triplicates. The data are expressed as fold induction over the value from control cells. Lower bar graph: A conventional MTT test was performed and absorbance was measured at 540 nm. […] The data are expressed as percentage of viability of control cells. […]

CYP1A2 protein = CYP1A2 protein induction in primary human hepatocytes (western blot); details: 10 µM
Description: as §3
Total protein extracts were prepared from cells cultured on 6-well plates. Cells were washed twice with ice-cold PBS and scraped into 1 ml of PBS. The suspension was centrifuged (4500 RPM/5 min/4°C) and the pellet was resuspended in 150 µl of ice-cold lysis buffer (150 mM NaCl; 10 mM Tris pH 7.2; 0.1% (w/v) SDS; anti-protease cocktail, 1% (v/v) Triton X-100; anti-phosphatase cocktail, 1% (v/v) sodium deoxycholate; 5 mM EDTA). […] Supernatant was collected and the protein content was determined by the Bradford reagent. […] The density of bands was measured by densitometry. […]
Figure 3 Effects of omeprazole and lansoprazole enantiomers on CYP1A1 mRNA, protein and EROD activity in primary human hepatocytes. […] RT-PCR data are the mean ± SD from triplicate measurements and are expressed as fold induction over vehicle-treated cells. […] Density of bands in western blots was quantified by densitometry and the values are indicated along with respective blots. […] Upper bar graph: An activity of 7-ethoxyresorufin- O-deethylase (EROD) was measured by fluorescent spectrophotometry with 530 nm excitation and 590 nm emission filters. […] The data are expressed as fold induction over the value from control cells. Lower bar graph: A conventional MTT test was performed and absorbance was measured at 540 nm. […] The data are expressed as percentage of viability of control cells.

CYP1A1 mRNA [4] = experiment: CYP1A1 mRNA induction in primary human hepatocytes (qRT-PCR); details: hepatocyte culture Hep220770, 24 h, 100 µM
Description: as §3
(§6) Total RNA was isolated using TRI Reagent (Molecular Research Center, Cincinnati, OH, USA). cDNA was synthesized from 1000 ng of total RNA using M-MLV Reverse Transcriptase (Finnzymes, Espoo, Finland) at 42°C for 60 min in the presence of random hexamers (Takara, Shiga, Japan). qRT-PCR was carried out using LightCycler FastStart DNA MasterPLUS SYBR Green I (Roche Diagnostic Corporation, Prague, Czech Republic) on a Light Cycler 480 II apparatus (Roche Diagnostic Corporation). CYP1A1, CYP1A2 and GAPDH mRNAs were determined as described previously. Measurements were performed in triplicates. Gene expression was normalized to GAPDH as a housekeeping gene.
We examined a capability of omeprazole and lansoprazole to induce CYP1A1 and CYP1A2 mRNA and protein in primary human hepatocytes, which is a more physiological and metabolically competent cell model. Human hepatocytes were treated for 24 h or 48 h with TCDD (5 nM), vehicle (DMSO; 0.1% V/V) and tested compounds.
Figure 3 Effects of omeprazole and lansoprazole enantiomers on CYP1A1 mRNA, protein and EROD activity in primary human hepatocytes. Panel A and Panel B: RT-PCR analyses of CYP1A1 and CYP1A2 mRNA and western blots of CYP1A1 and CYP1A2 from two different cultures (HH52 and Hep220770) are shown. Human hepatocytes were incubated for 24 h (mRNA analysis) or 48 (protein analysis) with S-OME, R-OME, rac-OME, S-LAN, R-LAN, rac-LAN, TCDD and vehicle (DMSO; 0.1% v/v). RT-PCR data are the mean ± SD from triplicate measurements and are expressed as fold induction over vehicle-treated cells. Data were normalized to GAPDH mRNA levels. Density of bands in western blots was quantified by densitometry and the values are indicated along with respective blots. Panel C: EROD and cytotoxicity: Human hepatocytes (culture Hep220774) were treated for 24 h with S-OME, R-OME, rac-OME, S-LAN, R-LAN, rac-LAN, TCDD and vehicle (DMSO; 0.1% v/v). Upper bar graph: An activity of 7-ethoxyresorufin- O-deethylase (EROD) was measured by fluorescent spectrophotometry with 530 nm excitation and 590 nm emission filters. Treatments were performed in triplicates. The data are expressed as fold induction over the value from control cells. Lower bar graph: A conventional MTT test was performed and absorbance was measured at 540 nm. Treatments were performed in triplicates. The data are expressed as percentage of viability of control cells.

[5] = MTT cytotoxicity test in primary human hepatocytes; details: female, human, primary human hepatocytes, culture Hep220774
Method: as §5

[6] = MTT cytotoxicity test in AZ-AHR reporter cells; details: human
Method: as §1, §4, §2

CYP1A1 mRNA [7] = details: HepG2, 24 h, 5 nM, vs vehicle-treated cells
Method: as §6
Treatments were performed in triplicates.

[8] = system: CYP1A1 catalytic activity (EROD); experiment: EROD catalytic activity in HepG2 cells; details: HepG2, 24 h, 5 nM
[9] = system: CYP1A1/1A2 enzymes (EROD); experiment: EROD activity in primary human hepatocytes; details: hepatocyte culture Hep220774, 24 h, 5 nM
Method: as §5

CYP1A1 protein = CYP1A1 protein induction in primary human hepatocytes (western blot); details: hepatocyte culture HH52, 48 h
Description: Primary human hepatocytes used in this study were obtained from two sources: (i) from multiorgan donor HH52; the use of liver cells of donor HH52 was approved by “Ethical committee at the Faculty Hospital Olomouc”,and it was in accordance with Transplantation law #285/2002 Sb; “Ethical committee at the Faculty Hospital Olomouc” waived the authors from obtaining consent from the next of kin, regarding human hepatocytes obtained from liver donor HH52. (ii) long-term human hepatocytes in monolayer Batch HEP220770 (person), Batch HEP220774 (person) were purchased from Biopredic International (Biopredic International, Rennes, France). Cells were cultured in serum-free medium. […]
Total protein extracts were prepared from cells cultured on 6-well plates. […] Supernatant was collected and the protein content was determined by the Bradford reagent. […] The density of bands was measured by densitometry. […]
Figure 3 Effects of omeprazole and lansoprazole enantiomers on CYP1A1 mRNA, protein and EROD activity in primary human hepatocytes. […] RT-PCR data are the mean ± SD from triplicate measurements and are expressed as fold induction over vehicle-treated cells. […] Density of bands in western blots was quantified by densitometry and the values are indicated along with respective blots. […] The data are expressed as fold induction over the value from control cells. […]

[10] = AZ-AHR cells, 24 h, compared to 5 nM TCDD, calculated at 100 µM compound (stated for omeprazole)

In the case of `COc1ccc2nc([S@+]([O-])Cc3ncc(C)c(OC)c3C)[nH]c2c1` [R-OME, R-omeprazole], the IC50 [1] is reported as 54.8 ± 25.9 µM, the AhR agonist efficacy [2] is reported as 48.6±26.8% and the EC50 ([2]; read-out: AhR agonist EC50, AZ-AHR cells, 24 h, luciferase, average of five passages) is reported as 35.1 ± 3.7 µM. The “CYP1A2 mRNA induction” value (CYP1A2 mRNA) was 71 % of TCDD induction and the “cytotoxicity” value (AZ-AHR cells) was “not cytotoxic”.

With `Cc1c(OCC(F)(F)F)ccnc1C[S@+]([O-])c1nc2ccccc2[nH]1` [S-LAN, S-lansoprazole] the EC50 [2] was 1.9 ± 0.3 µM, the AhR agonist efficacy [2, 10] was 26.3±8.7% and the “viability of the cells” value [3] was 64%. The “CYP1A2 protein induction” value (CYP1A2 protein; hepatocyte culture HH52, 48 h) was “strong induction” and the IC50 (AZ-AHR cells) was 169 µM.

With `COc1ccc2nc([S@@+]([O-])Cc3ncc(C)c(OC)c3C)[nH]c2c1` [S-OME, S-omeprazole] the “CYP1A1 mRNA induction” value (CYP1A1 mRNA [4]) was 736 fold, the AhR agonist efficacy [2, 10] was 44.8±11.8% and the EC50 at 24 h ([2]; human) was 22.9 ± 7.9 µM. For the same compound, the viability at 24 h, 250 µM [5] was 60%, the “CYP1A2 protein induction” value (CYP1A2 protein; both hepatocyte cultures (HH52, Hep220770), 48 h) was “strongly induced” and the “cytotoxicity” value (AZ-AHR cells) was “not cytotoxic”. The IC50 at 24 h [6] was over 250 µM.

In the case of `Clc1cc2c(cc1Cl)Oc1cc(Cl)c(Cl)cc1O2` [TCDD, 2,3,7,8-tetrachlorodibenzo-p-dioxin], the “CYP1A1 mRNA induction” value (CYP1A1 mRNA [7]) is reported as “approximately 230 fold”, the “induction of AhR-dependent luciferase activity, average” value ([2]; 5 nM TCDD, five consecutive passages, vs vehicle-treated cells) is reported as 354 fold and the “EROD activity, average increase” value [8] is reported as 22-23 fold. The “induction of EROD activity” value [9] was “approximately 15 fold” and the “CYP1A1 protein induction” value (CYP1A1 protein) was “drastic increase”.
